From patent publication US20250108070A1, “METHOD FOR REPROGRAMMING CD8+ T CELLS TO ENHANCE THEIR THERAPEUTIC POTENTIAL AND APPLICATIONS THEREOF” (INSTITUT PASTEUR, priority 2022, published 2025)
Structures can show the parent of a compound that is named as a salt.

Tests used:
[1] = tested on: mTORC1 and mTORC2 pathways; assay: Screening of GSK3 inhibitors: phospho-S6 / phospho-AKT staining (activation of mTORC1 and mTORC2 pathways); format: cell-based, human; conditions: for frequency of pS6+pAKT+ cells / activation of mTORC pathway: FIG. 12A, in words; for Fold change in pS6+pAKT+cells (relative to DMSO): 12 hs at optimal dose, washout, 48 hs anti-CD3/anti-CD28, symbols not defined
Experimental: (§1) FIG. 12. Screening molecules for reprogramming human CD8^+ T cells Total CD8^+ T cells were purified and treated for 12 hs with titrated doses of GSK3 inhibitors or DMSO vehicle control. After drug washout, cells were stimulated for 48 hs with plate-bound anti-CD3/anti-CD28 antibodies (at 1 mg/mL), followed by flow cytometry analyses. A. Upon stimulation, intracellular cytokine and phospho-protein staining was performed, the latter for the detection of phospho-S6 and phospho-AKT proteins (indicative of activation of mTORC1 and mTORC2 pathways, respectively). The fold change in the frequency of IFN-γ^+TNF-α^+ and pS6^+pAKT^+ cells induced by the treatment with each GSK3 inhibitor, relative to DMSO control, was analyzed. […] B. Fold change in the expression of the indicated markers and memory phenotypes induced by anti-CD3/anti-CD28 antibody stimulation relative to unstimulated cells (at least 3 donors per condition). TCM: T central memory; TEM: T effector memory; TTM: T transitional memory; TTE: T terminal effector; TSCM: T stem cell memory.
(§2) For reprogramming of CD8^+ T cells followed by polyclonal stimulation, cells were isolated by negative magnetic bead sorting (Stemcell Technologies). For reprogramming of CD8^+ T cells followed by antigen-specific stimulation, PBMC and magnetically separated CD8^+ T cells and non-CD8^+ T cells were used (REAlease® CD8 MicroBead Kit; Miltenyi Biotech). Then, CD8^+ T cells were treated with a GSK3 inhibitor (6-Bromoindirubin-3′-oxime; BIO; Sigma-Aldrich), at 3 μM, or an equivalent concentration of dimethyl sulfoxide (DMSO) vehicle control, in complete medium, for 12 hs at 37° C., 5% CO2. Non-CD8 cells were left resting during this time in complete medium. CD8^+ T cells were washed with complete medium and stimulated with the peptide pool in presence of non-CD8 T cells.
(§3) In some experiments, cells were culture in RPMI medium without glucose (MP Biomedicals). CD8^+ T cell proliferation was evaluated by CFSE dilution (at 1 μM, Thermo Fisher Scientific). In additional experiments, reprogrammed CD8^+ T cells were stimulated with IL-7 or IL-15 (both at 10 ng/mL; R&D) and cultured for 6 days. In all the cases, cells were cultured at a density of 2×10^6 cells/mL.
(§4) After cultures, cells were stained with the LIVE/DEAD Fixable Aqua Dead Cell Stain kit (Thermo Fisher Scientific), with anti-CD3 Alexa Fluor 700 or APC efluor 780 and anti-CD8 PE Texas Red antibodies, accordingly. […] In some experiments, cells were stained with APC-conjugated dextramers (Immudex), incubated for 15 minutes at room temperature. Additional surface staining panels included anti-HLA-DR Superbright 780, anti-CD38 Superbright 600, anti-PD-1 BV421, anti-LAG-3 APC efluor 780, anti-TIM3 PE Cy7, and anti-TIGIT BV786 antibodies, or anti-CD122 PE and anti-CD215 FITC antibodies. The BD Transcription Factor Buffer Set kit (BD Biosciences) was used for cell fixation and permeabilization. […] Cell acquisition was performed using LSR II or ARIA III flow cytometers (both from BD Biosciences), and data were analyzed with FlowJo v.10 software (BD Biosciences).
(§5) The inventors explored GSK3 inhibitors to expand the array of molecules that could be used for CD8^+ T cell reprogramming. They implemented a screening approach that combined the evaluation of cytokine polyfunctionality of CD8^+ T cells (IFN-γ+TNFα+) vs the activation of mTORC1 and mTORC2 pathways (pS6+pAKT+) upon treatment with the GSK3 inhibitors and subsequent polyclonal stimulation.

human CD8+ T cells [2] = assay: Screening of GSK3 inhibitors: cytokine polyfunctionality (IFN-γ+TNF-α+) of CD8+ T cells after anti-CD3/anti-CD28 stimulation; format: cell-based; conditions: for Fold change in IFN-γ+ TNF-a+cells (relative to DMSO): 12 hs at optimal dose, washout, 48 hs anti-CD3/anti-CD28, symbols not defined; for IFN-γ+TNF-α+ cells (polyfunctionality) relative to vehicle control: FIG. 12A, in words
Experimental: as §1, §2, §3, §4, §5

GSK3 = GSK3 inhibitor, review Front. Mol. Neurosci. 2011; cited from earlier work
human CD8+ T cells [3] = assay: Screening of GSK3 inhibitors: markers and memory phenotypes by flow cytometry; format: cell-based
Experimental: as §1, §2, §3, §4

[4] = 12 hs at optimal dose, anti-CD3/anti-CD28 stimulation relative to unstimulated cells, symbols not defined

In the case of `COc1ccc(CNC(=O)Nc2ncc([N+](=O)[O-])s2)cc1` [AR-A014418], the “frequency of pS6+pAKT+ cells / activation of mTORC pathway” value [1] is reported as “decreased”.

With `CN1CCN(S(=O)(=O)c2ccc(-c3cnc(N)c(C(=O)Nc4cccnc4)n3)cc2)CC1` [AZD 2858] the “Fold change in IFN-γ+ TNF-a+cells (relative to DMSO)” value (human CD8+ T cells [2]) was “+ +” and the “Fold change in pS6+pAKT+cells (relative to DMSO)” value [1] was “+ +”.

With `O=C1Cc2c([nH]c3ccc([N+](=O)[O-])cc23)-c2ccccc2N1` [Alsterpaullone] the “Fold change in IFN-γ+ TNF-a+cells (relative to DMSO)” value (human CD8+ T cells [2]) was “+ +”, the “IFN-γ+TNF-α+ cells (polyfunctionality) relative to vehicle control” value (human CD8+ T cells [2]) was “increased” and the “Fold change in pS6+pAKT+cells (relative to DMSO)” value [1] was “+ +”. The “frequency of pS6+pAKT+ cells / activation of mTORC pathway” value [1] was “activation of mTORC pathway” and the “Fold change in % HLA+ CD38+” value (human CD8+ T cells [3]; [4]) was “− −”.

With `CC(=O)ON=C1C(=C2C(=O)Nc3cc(Br)ccc32)Nc2ccccc21` [Bio-acetoxime, 6-bromoindirubin-3′-acetoxime] the “Fold change in IFN-γ+ TNF-a+cells (relative to DMSO)” value (human CD8+ T cells [2]) was “+ +”, the “IFN-γ+TNF-α+ cells (polyfunctionality) relative to vehicle control” value (human CD8+ T cells [2]) was “promoted” and the “frequency of pS6+pAKT+ cells / activation of mTORC pathway” value [1] was “lower frequency”. The “CD127+ T-bet− phenotype” value (human CD8+ T cells [3]; FIG. 12B, in words) was “preserved”, the “acquisition of T-bet, HLA-DR and CD38, PD-1 and LAG-3” value (human CD8+ T cells [3]; FIG. 12B, in words) was “restrained” and the “phenotype / profile promoted in CD8+ T cells” value (human CD8+ T cells [3]; FIG. 12B, in words) was “promoted a less-differentiated phenotype”.

With `OCCCNc1cc(-c2ccnc(Nc3cccc(Cl)c3)n2)ccn1` [CGP 60474] the “Fold change in % HLA+ CD38+” value (human CD8+ T cells [3]; [4]) was “− −”.

For `NC1=N[C@H]2c3c([nH]c(Br)c3Br)C(=O)N3CCC[C@]23N1` [Dibromocantharelline], the IC50 (GSK3) is listed as 3000 nM.

For `CN1CC[C@H](c2c(O)cc(O)c3c(=O)cc(-c4ccccc4Cl)oc23)[C@H](O)C1` [Flavopiridol hydrochloride hydrate], the “Fold change in % HLA+ CD38+” value (human CD8+ T cells [3]; [4]) was “− −”, the “Fold change in % Naive-TSCM” value (human CD8+ T cells [3]; [4]) was “− −” and the “Fold change in % TCM” value (human CD8+ T cells [3]; [4]) was “− −”.
